Measured values as given in patent US10975114B2, “Bis 2′-5′-RR-(3′F-A)(3′F-A) cyclic dinucleotide compound and uses thereof” (ADURO BIOTECH, INC., priority 2017, dated 2021).

Columns and labels:
wild type hSTING = target: T1, wild type hSTING (Homo sapiens, UniProt Q86WV6, H232R); assay: DSF Tm shift, purified hSTING WT (AA140-379); type: binding; settings: 1 mg/ml STING AA140-379, ligand 1 mM
T1 construct: 6xHis-SUMO (with TEV site) (N, cleaved yes); made in house; host or cells: Rosetta2 (DE3) E. coli
Procedure: (§1) Cells were grown in lysogeny broth at 37° C. until a […] absorbance of 0.6 was reached. […] Cells were lysed using an S-450D sonifier (Emmerson industrial) on ice. […] Protein was aliquoted, flash frozen in liquid nitrogen and stored at −80° C. until use.
(§2) The protein is heated in the presence of a dye that binds to and fluoresces in hydrophobic environments. The protein is thermally denatured by heating resulting in increased dye binding to the unfolded protein and fluorescence. The temperature midpoint (Tm) of a proteins denaturation is established by calculating the half maximal value of the denaturation curve. The temperature midpoint of the protein in the presence of a ligand is directly related to the affinity of the ligand for the protein and therefore its ability to stabilize the protein at higher temperatures.

HAQ allele hSTING = target: T2, HAQ allele hSTING (Homo sapiens, UniProt Q86WV6, G230A/H232R/R293Q); assay: DSF Tm shift, purified hSTING HAQ allele (AA140-379); type: binding; settings: 1 mg/ml STING AA140-379, ligand 1 mM
T2 construct: 6xHis-SUMO (with TEV site) (N, cleaved yes); made in house; host or cells: Rosetta2 (DE3) E. coli
Procedure: as §1, §2

REF allele hSTING = target: T3, REF allele hSTING (Homo sapiens, UniProt Q86WV6); assay: DSF Tm shift, purified hSTING REF allele (AA140-379); type: binding; settings: 1 mg/ml STING AA140-379, ligand 1 mM
T3 construct: 6xHis-SUMO (with TEV site) (N, cleaved yes); made in house; host or cells: Rosetta2 (DE3) E. coli
Procedure: as §1, §2

hSTING WT = target: T4, hSTING WT (Homo sapiens, UniProt Q86WV6, H232R); assay: ITC binding assay, hSTING WT; settings: 25° C., protein 0.1 mM, ligand 0.35 mM
T4 construct: made in house; host or cells: BL21 Rosetta 2 (DE3) E. coli
Procedure: (§3) The WT and REF proteins were similarly prepared for use in an ITC binding assay. Expression plasmids were transformed into BL21 Rosetta 2 (DE3) (EMD Millipore) E. coli cells for protein expression. 50 ml starter cultures were grown overnight in 2×YT supplemented with 50 μg/ml kanamycin and 30 μg/ml chloramphenicol. Multi-liter large scale cultures of the same growth media as the starter were inoculated at a ratio of 1:1,000 (V/V) and allowed to grow at 37° C. to an optical density of 0.6, cultures were then shifted to 18° C. Protein expression was induced by the addition of isopropyl β-D-1-thiogalactopyranoside to a final concentration of 0.3 mM. Protein expression was allowed to proceed for 18-24 hrs. Pelleted cells were resuspended in 50 mM Tris pH 7.5, 500 mM NaCl, 10% glycerol, 20 mM imidazole, 1 mM TCEP and complete protease inhibitor cocktail (Sigma). Cells were lysed by sonication (Branson) and insoluble material was removed by centrifugation. Proteins were purified on Ni-NTA resin and concentrated to >10 mg/ml. 6×H-SUMO-STING LBD was further purified by gel filtration chromatography using a High Load 26/600 Superdex 75 column (GE Healthcare) in a buffer of 20 mM Tris pH 7.5, 150 mM NaCl, 5% glycerol and 1 mM TCEP. Peak fractions were concentrated to between 10-15 mg/ml via ultrafiltration aliquoted and flash frozen in liquid nitrogen and stored at […]
The resulting amino acid sequence for the STING WT allele is as follows: • Allele Name: WT • Amino Acid Sequence:
(§4) Proteins were dialyzed overnight in 20 mM HEPES pH 7.5, 150 mM NaCl. Insoluble material was removed by centrifugation at 31,000×g. The invention compound 2′2′-RR-(3′F-A)(3′F-A) and comparison STING agonists 3′3′-RR-(2′F-A)(2′F-A); 2′3′-RR-(3′F-A)(2′F-A) were resuspended in dialysis buffer. The concentration of both the protein and ligands were checked by spectroscopy and adjusted if necessary.
(§5) STING protein was added to the ITC sample cell at a final concentration of 0.1 mM. The CDN ligand was at a final concentration of 0.35 mM in the syringe. […]

hSTING REF allele = target: T5, hSTING REF allele (Homo sapiens, UniProt Q86WV6); assay: ITC binding assay, hSTING REF allele; settings: 25° C., protein 0.1 mM, ligand 0.35 mM
T5 construct: made in house; host or cells: BL21 Rosetta 2 (DE3) E. coli
Procedure: as §3
The resulting amino acid sequences for the STING REF allele is as follows: • Allele Name: REF • Amino Acid Sequence:
as §4, §5

[1] = tested on: THP1 cells (hSTING HAQ allele); assay: THP1-Dual IRF-3 luciferase reporter assay without digitonin; type: cell-based, human; settings: 30 min compound incubation, overnight readout of secreted luciferase
Procedure: Cells were washed with fresh media and incubated for 30 min at 37° C. with 5% CO2 with compounds in 3-fold titration steps from 2,000 to 0.0338 μM in PB buffer (50 mM 4-(2-hydroxyethyl)-1-piperazineethanesulfonic acid, 100 mM KCl, 3 mM MgCl2, 0.1 mM dithiothreitol, 85 mM sucrose, 1 mM ATP, 0.1 mM GTP and 0.2% bovine serum albumin). After 30 minutes, cells were washed and fresh RPMI media containing 10% FBS was added, and cells were incubated at 37° C. with 5% CO2. Cell culture supernatants from each sample were collected after overnight incubation, and 10 μl of the cell culture supernatants was added to 50 μl QUANTI-Luc reagent (Invivogen). Type I interferon activation was determined by measuring secreted luciferase levels on a SpectraMax M3 spectrophotometer (Molecular Devices). The EC50 value for the same compounds as tested in Example 4 was determined from the dose-response curve for the 10 concentrations from the serial dilution of the compounds in this assay.

4T1 mammary carcinoma [2] = assay: 4T1 mammary carcinoma dual-flank model, single intratumoral injection; type: in vivo, BALB/c mice
Procedure: (§6) To assess the ability of 2′2′-RR-(3′F-A)(3′F-A) to promote anti-tumor immunity in a murine tumor model, 6-8 week old female BALB/c mice (n=8/group) were implanted in both the left and the right flanks with 4T1 mammary carcinoma cells (2×10^5 cells in 100 μL PBS). Mice were treated with 2′2′-RR-(3′F-A)(3′F-A) at 0.1, 1, 10 and 100 μg in a total volume of 40 μL HBSS and compared to Hank's Balanced Salt Solution (HBSS) vehicle control. Compound was administered when tumors reached a volume of approximately 40-50 mm^3 on day 8 post tumor implantation (indicated by dotted line on the x-axis in tumor growth graphs). The compound was administered by a single […] injection into the center of the tumor (intratumoral, IT) using a 27 gauge needle. Tumors were measured twice weekly.

4T1 mammary carcinoma [3] = assay: Tumor-specific T cells in blood of 4T1 mice (AH1 tetramer flow cytometry); type: in vivo, BALB/c mice; settings: day 7 post IT injection, 0.1, 1 and 10 μg IT doses, compared to HBSS
Procedure: as §6
Lympholyte (Cedarlane) gradient-purified PBMCs (˜1×10^6) were pre-incubated with anti-CD16/32 monoclonal antibody to block potential non-specific binding and labeled with murine T-Select H-2L^d MuLV gp70 Tetramer-[…]-PE (SEQ ID NO: 20, AH1 peptide with PE fluorescent label, MBL), anti-CD4-BUV737 (RMA4-5), anti-CD8α-BUV395 (53-6.7) (BD Biosciences); anti-CD90.2 BV510 (30-H12) (BioLegend) and the Fixable LIVE/DEAD Near-IR viability dye (ThermoFisher). Data were acquired using a LSRFortessa X-20 cytometer with FACSDiva software (BD) and analyzed with FlowJo software (Tree Star).

4T1 mammary carcinoma [4] = assay: 4T1 mammary carcinoma dual-flank model, combination with anti-PD-1 antibody; type: in vivo, BALB/c mice
Procedure: (§7) To assess the ability of 2′2′-RR-(3′F-A)(3′F-A) to promote anti-tumor immunity in murine tumor models in combination with an antagonistic anti-PD-1 antibody, 6-8 week old female BALB/c mice (n=8/group) were implanted in both the left and the right flanks with 4T1 mammary carcinoma cells (2×10^5 cells in 100 aL PBS, day 0). Mice were treated with vehicle alone or 1 μg 2′2′-RR-(3′F-A)(3′F-A) in a total volume of 40 aL HBSS by IT injection using a 27 gauge needle when tumors reached a volume of approximately 40-50 mm^3 on day 8 post tumor implantation (indicated by dotted line on the x-axis in tumor growth graphs). Mice were given intraperitoneal (IP) injections of 200 μg control IgG or anti-PD-1 (clone RMP1-14, BioXCell) beginning on the day of 2′2′-RR-(3′F-A)(3′F-A) treatment and then continuing twice per week throughout the duration of the experiment. Some mice were given IP injection of 100 μg anti-CD8 (clone 2.43, BioXCell) on study days 6, 8, 10, 14, and 17 to deplete CD8^+ T cells. Tumors were measured twice weekly.

4T1 mammary carcinoma [5] = assay: AH1-specific T cells in distal 4T1 tumor (TILs), with or without anti-PD-1; type: in vivo, BALB/c mice
Procedure: as §7, with “Some mice were given IP injection of 100 μg anti-CD8 (clone 2.43, BioXCell) on study days 6, 8, 10, 14, and 17 to deplete CD8^+ T cells.” left out
To directly quantify the effect of combining 2′2′-RR-(3′F-A)(3′F-A) with anti-PD-1 on tumor-specific T cells, a cohort of mice from Example 9 were euthanized on day 7 post IT injection and non-injected tumors dissociated into a single cell suspension. […] Data were acquired using a LSRFortessa X-20 cytometer with FACSDiva software (BD) and analyzed with FlowJo software (Tree Star).

[6] = 1 μg IT combined with anti-PD-1 antibody 200 μg IP twice per week

| SMILES | hSTING Tm Shift WT (wild type hSTING) [°C] | hSTING Tm Shift HAQ (HAQ allele hSTING) [°C] | hSTING Tm Shift REF (REF allele hSTING) [°C] | Kd (hSTING WT) [nM] | Kd (hSTING REF allele) [nM] | EC50 [1] [nM] | EC50 ([1]; Homo sapiens, THP-1, 0.5 h) [nM] | cures of the distal tumor (4T1 mammary carcinoma [2]; 10 μg single IT dose, n=8) [%] | cures of the primary tumor (4T1 mammary carcinoma [2]; 10 μg single IT dose, n=8) [%] | tumor inhibition in primary (injected) and distal (non-injected) flank tumor (4T1 mammary carcinoma [2]; single IT injection 0.1, 1, 10, 100 μg, compared to HBSS) | frequency of tumor-specific systemic T cells (4T1 mammary carcinoma [3]) | cures, injected tumor (4T1 mammary carcinoma [4]; 1 μg IT + control IgG) [%] | cures, non-injected tumor (4T1 mammary carcinoma [4]; 1 μg IT + control IgG) [%] | cures, distal (non-injected) tumor (4T1 mammary carcinoma [4]; [6]) [%] | cures, primary (injected) tumor (4T1 mammary carcinoma [4]; [6]) [%] | tumor-specific T cell response in distal tumor (4T1 mammary carcinoma [5]; 1 μg IT alone, TILs day 7 post IT injection) | polyfunctional IFNγ+TNFα+ CD8 T cells specific for the AH1 peptide in the tumor microenvironment (4T1 mammary carcinoma [5]; 1 μg IT combined with anti-PD-1, TILs of non-injected tumor, day 7 post IT injection) |
| --- | --- | --- | --- | --- | --- | --- | --- | --- | --- | --- | --- | --- | --- | --- | --- | --- | --- |
| Nc1ncnc2c1ncn2[C@@H]1O[C@@H]2CO[P@@](=O)(S)O[C@@H]3[C@H](F)[C@@H](CO[P@@](=O)(S)O[C@@H]1[C@@H]2F)O[C@H]3n1cnc2c(N)ncnc21 [2′2′-RR-(3′F-A)(3′F-A), (1S,3R,6R,8R,9S,11R,14R,16R,17R,18R)-8,16-bis(6-amino-9H-purin-9-yl)-17,18-difluoro-3,11-dimercapto-2,4,7,10,12,15-hexaoxa-3,11-diphosphatricyclo[12.2.1.1^6,9]octadecane 3,11-dioxide] | 13.9 | 19.7 | 12.5 | 98 | 170 | 16600 | < 20000 | 37.5 | 100 | potent dose-dependent tumor inhibition | significantly higher frequency | 25 | 0 | 62.5 | 87.5 | measurable above background | statistically significant increase |
| Nc1ncnc2c1ncn2[C@@H]1O[C@@H]2CO[P@@](=O)(S)O[C@@H]3[C@H](O)[C@@H](CO[P@@](=O)(S)O[C@@H]1[C@@H]2O)O[C@H]3n1cnc2c(N)ncnc21 [2′2′-RR-(A)(A), (1R,3R,6R,8R,9R,11R,14R,16R,17R,18R)-8,16-bis(6-amino-9H-purin-9-yl)-17,18-dihydroxy-3,11-dimercapto-2,4,7,10,12,15-hexaoxa-3,11-diphosphatricyclo[12.2.1.1^6,9]octadecane 3,11-dioxide] | 3.4 | 5.1 | 3.6 | – | – | – | > 150000 | – | – | – | – | – | – | – | – | – | – |
| Nc1nc2c(ncn2[C@@H]2O[C@@H]3COP(=O)(O)O[C@H]4[C@@H](O)[C@H](n5cnc6c(N)ncnc65)O[C@@H]4COP(=O)(O)O[C@@H]2[C@@H]3O)c(=O)[nH]1 [2′3′-(G)(A)] | – | – | – | – | – | > 150000 | – | – | – | – | – | – | – | – | – | – | – |
| Nc1ncnc2c1ncn2[C@@H]1O[C@@H]2CO[P@@](=O)(S)O[C@@H]3[C@H](F)[C@@H](OC[P@@](=O)(S)O[C@H]2[C@H]1F)O[C@H]3n1cnc2c(N)ncnc21 [2′3′-RR-(3′F-A)(2′F-A), dithio-[Rp,Rp]-cyclic-[3′F-A(2′,5′)p-2′F-A(3′,5′)p]] | 14.5 | 26 | 10.5 | 109 | 333 | – | 4500 | – | – | – | – | – | – | – | – | – | – |
| Nc1ncnc2c1ncn2[C@@H]1O[C@@H]2CO[P@@](=O)(S)O[C@H]3[C@@H](F)[C@H](n4cnc5c(N)ncnc54)O[C@@H]3CO[P@@](=O)(S)O[C@H]2[C@H]1F [3′3′-RR-(2′F-A)(2′F-A), (2R,3R,3aR,5R,7aR,9R,10R,10aR,12R,14aR)-2,9-bis(6-amino-9H-purin-9-yl)-3,10-difluoro-5,12-dimercaptooctahydro-2H,7H-difuro[3,2-d:3′,2′-j][1,3,7,9]tetraoxa[2,8]diphosphacyclododecine 5,12-dioxide] | – | – | – | 74 | 591 | – | 15600 | – | – | – | – | – | – | – | – | – | – |
